Drawing on PubChem BioAssay (NCI), this text covers TGI for 20 compounds.

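Briefly, cells in 96-well plates were exposed to five compound concentrations for 48 h, and endpoints were estimated by linear interpolation. The concentration for full growth arrest is given as TGI.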

Test systems include XF 498 CNS; LXFL 529 NSCLC; HOP-18 NSCLC; DLD-1 colon; SNB-78 CNS; DMS 273 small cell lung; RXF-631 renal; DMS 114 small cell lung; MDA-N.
Test in all cases: growth of human tumour cells (NCI), 48 h

Consider `C=C1C(=O)C23[C@H](O)C1CC[C@H]2[C@]12COC3(O)[C@@H](O)[C@@H]1C(C)(C)CC[C@@H]2O`, for which the TGI amounted to 9.82 µM in the experiment on XF 498 CNS; 2.56 µM with LXFL 529 NSCLC; 24.6 µM in the experiment on HOP-18 NSCLC; 25.1 µM in the experiment with DLD-1 colon; 16.4 µM with SNB-78 CNS; 27.3 µM in the experiment with DMS 273 small cell lung. The TGI in the experiment with RXF-631 renal is 22.7 µM; with DMS 114 small cell lung it was 21.3 µM.

Turning to `CN(C)c1ccc(/C=C(\NC(=O)c2ccccc2)c2nc3ccc4c(c3[nH]2)C(=O)c2ccccc2C4=O)cc1`, the TGI with LXFL 529 NSCLC was more than 100 µM; in the experiment with DLD-1 colon, 55.7 µM; with SNB-78 CNS, more than 100 µM; with DMS 273 small cell lung it was more than 100 µM; with RXF-631 renal, more than 100 µM; in the experiment with DMS 114 small cell lung it was more than 100 µM.

Take `COc1cc2c(c3c1c(=O)c1ccccc1n3C)C=CC(C)(C)O2`: the TGI in the experiment with LXFL 529 NSCLC, with HOP-18 NSCLC, in the experiment on DLD-1 colon, with SNB-78 CNS, in the experiment on DMS 273 small cell lung and in the experiment on DMS 114 small cell lung was more than 100 µM in each case.

As for `CCOc1cccc2c1N[S@@](=O)S2`, the TGI in the experiment with XF 498 CNS, in the experiment with LXFL 529 NSCLC, in the experiment on DLD-1 colon, in the experiment with SNB-78 CNS, with DMS 273 small cell lung and in the experiment on RXF-631 renal was more than 100 µM throughout.

With `CCOc1ccc(N=C2NC(=O)C(CC(=O)Nc3ccccc3[N+](=O)[O-])S2)cc1` (stereo not given), the TGI in the experiment with XF 498 CNS, in the experiment on LXFL 529 NSCLC, in the experiment on DLD-1 colon, with SNB-78 CNS, in the experiment on DMS 273 small cell lung and in the experiment with DMS 114 small cell lung was more than 100 µM each time.

For the compound `CC(=O)c1ccc(NC(=O)C(=O)C(C(=O)/C=C/c2ccccc2)C2OC(=O)c3ccccc32)cc1` (stereo not given), the TGI in the experiment on XF 498 CNS, in the experiment on LXFL 529 NSCLC, in the experiment with HOP-18 NSCLC, in the experiment with DLD-1 colon, in the experiment with SNB-78 CNS and in the experiment with DMS 273 small cell lung was more than 100 µM in each case. This compound registered a TGI in the experiment on RXF-631 renal of more than 100 µM.

For the compound `CCCc1nc(Cl)nc(Cl)c1Cl`, in the experiment with MDA-N, the TGI is 0.398 µM.

Take `COc1ccc(/C=C2\CCC(CCN(C)C)(C3=CCCC3)C2=O)cc1` (stereo not given): the TGI in the experiment with LXFL 529 NSCLC stood at 30.4 µM; with HOP-18 NSCLC, 66.5 µM; in the experiment with DLD-1 colon, 79.2 µM; in the experiment on SNB-78 CNS, 56.2 µM; with DMS 273 small cell lung it was 31.1 µM; in the experiment on DMS 114 small cell lung, 31.2 µM.

For the compound `CCOC(=O)C1Cc2ccc3c4c(ccc(c24)C1)CC(C(=O)OCC)C3`, the TGI with XF 498 CNS, with HOP-18 NSCLC, with DLD-1 colon, in the experiment with SNB-78 CNS, with DMS 273 small cell lung and in the experiment with DMS 114 small cell lung was more than 100 µM each time.

Regarding `C[N+](C)(C)CC1CCCCC1=O` (stereo not given), the TGI was 30.4 µM in the experiment on HOP-18 NSCLC, 39.2 µM in the experiment on DLD-1 colon, more than 100 µM in the experiment with DMS 273 small cell lung and more than 100 µM in the experiment with DMS 114 small cell lung.

In the experiment with MDA-N, `CC(/C=C/C(O)=C1/C(=O)CNC1=O)=C\[C@@H](C)[C@H]1O[C@@]2(C)O[C@H](C(=O)[C@@H]3O[C@@]32C)[C@@H]1C` returned a TGI of more than 100 µM.

For the compound `COc1ccc(O)c(C(=O)CCC(=O)O)c1`, the TGI in the experiment with XF 498 CNS, in the experiment on LXFL 529 NSCLC, in the experiment on DLD-1 colon, with SNB-78 CNS, in the experiment on DMS 273 small cell lung and with RXF-631 renal was more than 100 µM each time. For the same compound, the TGI in the experiment on DMS 114 small cell lung is more than 100 µM.

The compound `Nc1nc(N)c2cc(Sc3ccc4ccccc4c3)ccc2n1` came in with a TGI in the experiment with MDA-N of 4.66 µM.

As to `CN/N=C(/c1nc2ccc([N+](=O)[O-])cc2[nH]c1=O)C(O)c1ccc(C(O)/C(=N\NC)c2nc3ccc([N+](=O)[O-])cc3[nH]c2=O)cc1` (stereo not given), the TGI with LXFL 529 NSCLC, with DLD-1 colon, in the experiment with SNB-78 CNS, with DMS 273 small cell lung, in the experiment with RXF-631 renal and in the experiment on DMS 114 small cell lung was more than 100 µM each time.

In the case of `C#CCN(N=O)C(=O)ON1C(=O)CCC1=O`, the TGI with LXFL 529 NSCLC, in the experiment on HOP-18 NSCLC, in the experiment on DLD-1 colon, with SNB-78 CNS, in the experiment with DMS 273 small cell lung and in the experiment with DMS 114 small cell lung was more than 100 µM throughout.

With `OC1=CN=COc2ccccc21`, the TGI with LXFL 529 NSCLC, in the experiment with DLD-1 colon, in the experiment on SNB-78 CNS, in the experiment on DMS 273 small cell lung, in the experiment with RXF-631 renal and in the experiment with DMS 114 small cell lung was more than 100 µM in each case.

In the case of `COc1cccc(-c2cc(=O)c3cc4c(cc3[nH]2)OCO4)c1`, the TGI is 2.59 µM with XF 498 CNS; 23.2 µM in the experiment on LXFL 529 NSCLC; more than 100 µM in the experiment with HOP-18 NSCLC; more than 100 µM with DLD-1 colon; more than 100 µM with SNB-78 CNS; more than 100 µM in the experiment on RXF-631 renal. In the experiment on DMS 114 small cell lung, this compound returned a TGI of more than 100 µM.

As to `CN(C)N1C(=O)SCC(c2ccccc2)(c2ccccc2)C1=O`, the TGI in the experiment with MDA-N was more than 100 µM.

`CC1=Nc2ccccc2SC(c2c(Cl)cccc2Cl)C1` (stereo not given): the TGI with XF 498 CNS amounted to 3.21 µM; in the experiment on LXFL 529 NSCLC, 1.69 µM; in the experiment with HOP-18 NSCLC, 11.1 µM; in the experiment with DLD-1 colon, 1.42 µM; with SNB-78 CNS it was 23.8 µM; with DMS 273 small cell lung, 2.19 µM. The compound also came in with a TGI with DMS 114 small cell lung of 3.19 µM.

On to `COc1ccc(/C=C(\NC(=O)c2ccccc2)c2nc3ccccc3[nH]2)cc1OC`, for which the TGI with XF 498 CNS, with LXFL 529 NSCLC, in the experiment with HOP-18 NSCLC, in the experiment with DLD-1 colon, with SNB-78 CNS and with RXF-631 renal was more than 100 µM in each case. Also, the TGI with DMS 114 small cell lung is more than 100 µM.
